Where “and” joins values, the source holds several entries; their conditions need not be identical. Identical values can stand only once.
Tested on: 186277-243-T-J2-PDC spheroids with HUVEC/MSC, viability
Assay: Anticancer human tumor 186277-243-T-J2-PDC patient-derived colon adenocarcinoma cell line growth inhibition [CLK]
Settings: for viability, T/C: stronger effect = lower value
Description: A high-throughput screen of multi-cell type tumor spheroids was designed to identify active combinations of […] and targeted small molecules. Complex spheroids include a stromal component modeled by human endothelial cells (HUVEC) and fibroblasts modeled by human mesenchymal stem cells (MSCs). The concentration ranges selected for each drug and investigational agent were based upon clinically achievable concentrations if the clinical Cmax of the agent was known.
Compounds. The drugs and investigational agents: cirtuvivint (SM08502; NSC835563), CC-671 (NSC850746), vemurafenib (NSC761431), tapotoclax (NSC804041), sotorasib (NSC818433), adagrasib (NSC831453), MRTX-1133 (NSC836407), BAY2416964 (NSC825713), copanlisib (NSC816437), inavolisib (NSC800729), abemaciclib (NSC768073), osimertinib (NSC779217), entinostat (NSC756642), eltanexor (KPT-8602, NSC794443), venetoclax (NSC766270), ceralasertib (NSC777638), bortezomib (NSC756655), olaparib (NSC753686), talazoparib (NSC767125), alisertib (NSC759677), peposertib (NSC802822), gemcitabine (NSC613327), 5-fluorouracil (NSC19893), SN-38 (NSC673596), oxaliplatin (NSC266046), paclitaxel (NSC125973), and doxorubicin (NSC123127), were obtained from the National Cancer Institute (NCI) Developmental Therapeutics Program Chemical Repository. The FDA-approved anticancer drug set is available from the Developmental Therapeutics Program at https://dtp.cancer.gov/organization/dscb/obtaining/available plates.htm. […] The stock solutions were prepared in dimethyl sulfoxide (DMSO, Sigma-Aldrich, St. Louis, MO, cat. D2650), except for the platinum complexes which were prepared in saline (Quality Biological, Gaithersburg, MD, cat. 114-055-101), at 800-fold the tested concentration and stored at -70 degrees C prior to their use. All drugs and investigational agents were tested over a range starting from a high concentration at or near the clinical Cmax and decreasing in half-log increments. If the clinical Cmax for an agent had not been determined, the highest concentration tested was 10 microM.
Cell Culture. All cells were maintained in an incubator at 37 degrees C and 5% CO2 with 95% humidity. The PDC lines were cultured according to standard operating procedures established by the NCI PDMR. Briefly, all PDCs were thawed and cultured in Matrigel-coated flasks prepared with a working solution of 1X Ham's F-12 nutrient mix, without supplementation (Invitrogen, Waltham, MA, cat. 11765054), 100 U/mL penicillin-streptomycin (Invitrogen, cat. 15140122), and 2.5% Matrigel (Corning Inc., Corning, NY, cat. 354248) for the first three passages. The 947758-054-R-J2-PDC line was cultured in 6B/Colon 1A media, which includes advanced DMEM/F-12 (Thermo Fisher Scientific, cat. 12634028), 10 mM HEPES (Thermo Fisher Scientific, cat. 15630080), 1X GlutaMAX supplement (Thermo Fisher Scientific, cat. 35050061), 0.1 mg/mL primocin (InvivoGen, cat. ant-pm-2), 10% defined fetal bovine serum, heat inactivated (HyClone Laboratories Inc., cat. SH30070.03HI), 1.25 mM N-Acetyl-L-cysteine (Sigma-Aldrich, cat. A9165), 10 mM nicotinamide (Sigma-Aldrich, cat. N0636), 1X B-27 supplement (Thermo Fisher Scientific, cat. 17504044), 1X N-2 supplement (Thermo Fisher Scientific, cat. 17502048), and 10 microM Y-27632 dihydrochloride (Tocris Bioscience, cat. 1254). The 876862-298-R-J1-PDC was cultured in 6E media, which includes all 6B/Colon 1A media components plus 50% L-WRN conditioned media (ATCC, cat. CRL-3276), 50 ng/mL recombinant human EGF recombinant protein (hEGF; Thermo Fisher Scientific, cat. PHG0311), 10 ng/mL recombinant human fibroblast growth factor 10 (hGFG-10; PeproTech, cat. 100-26), 1 ng/mL recombinant human fibroblast growth factor 2 (hFGF-2; PeproTech, cat. 100-18B), and 1 µM prostaglandin E2 (PGE2; Tocris, cat. 2296). The 227483-062-R1-J1-PDC line was cultured in Panc media, containing all 6E components except hFGF-2, with the addition of 500 nM SB-431542 (Selleckchem, cat. S1067) and 10 nM gastrin (Tocris, cat. 3006). […]

[1] = curve of first compound, second compound 0.0316 µM
[2] = curve of first compound, second compound 0.1 µM
[3] = curve of first compound, second compound 0.316 µM
[4] = curve of first compound, second compound 1 µM
[5] = curve of first compound, second compound 3.16 µM
[6] = curve of first compound, second compound 10 µM
[7] = second compound 0.0316 µM, first compound 0.0316 µM
[8] = second compound 0.0316 µM, first compound 0.1 µM
[9] = second compound 0.0316 µM, first compound 0.316 µM
[10] = second compound 0.0316 µM, first compound 1 µM
[11] = second compound 0.1 µM, first compound 0.0316 µM
[12] = second compound 0.1 µM, first compound 0.1 µM
[13] = second compound 0.1 µM, first compound 0.316 µM
[14] = second compound 0.1 µM, first compound 1 µM
[15] = second compound 0.316 µM, first compound 0.0316 µM
[16] = second compound 0.316 µM, first compound 0.1 µM
[17] = second compound 0.316 µM, first compound 0.316 µM
[18] = second compound 0.316 µM, first compound 1 µM
[19] = second compound 1 µM, first compound 0.0316 µM
[20] = second compound 1 µM, first compound 0.1 µM
[21] = second compound 1 µM, first compound 0.316 µM
[22] = second compound 1 µM, first compound 1 µM
[23] = second compound 3.16 µM, first compound 0.0316 µM
[24] = second compound 3.16 µM, first compound 0.1 µM
[25] = second compound 3.16 µM, first compound 0.316 µM
[26] = second compound 3.16 µM, first compound 1 µM
[27] = second compound 10 µM, first compound 0.0316 µM
[28] = second compound 10 µM, first compound 0.1 µM
[29] = second compound 10 µM, first compound 0.316 µM
[30] = second compound 10 µM, first compound 1 µM
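Note: compound exposure lasted seven days before readout.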
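Throughout, for viability, T/C: 100% = DMSO vehicle control wells.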

`CC(=O)O[C@H]1C(=O)[C@@]2(C)[C@H]([C@H](OC(=O)c3ccccc3)[C@]3(O)C[C@H](OC(=O)[C@H](O)[C@@H](NC(=O)c4ccccc4)c4ccccc4)C(C)=C1C3(C)C)[C@]1(OC(C)=O)CO[C@@H]1C[C@@H]2O` + CN1CCN(c2cc(C(=O)Nc3cc4cc(-c5cnn(C)c5)ccc4cn3)ccn2)CC1 gave an IC50 [1] of under 31.6 nM, an IC50 [2] of under 31.6 nM and an IC50 [3] of under 31.6 nM. For the same compound, the IC50 [4] was under 31.6 nM, the IC50 [5] was under 31.6 nM and the IC50 [6] was under 31.6 nM. The viability, T/C [7] was 15.6%, the viability, T/C [8] was 13.7% and the viability, T/C [9] was 8.66%. The viability, T/C [10] was 12.4%, the viability, T/C (second compound 0.0316 µM, first compound 3.16 µM) was 9.25% and the viability, T/C (second compound 0.0316 µM, first compound 10 µM) was 8.97%. It also gave a viability, T/C [11] of 14.4%, a viability, T/C [12] of 14.6% and a viability, T/C [13] of 11.3%. It also gave a viability, T/C [14] of 11.4%, a viability, T/C (second compound 0.1 µM, first compound 3.16 µM) of 10.2% and a viability, T/C (second compound 0.1 µM, first compound 10 µM) of 10.2%. It also gave a viability, T/C [15] of 13.3%, a viability, T/C [16] of 13.2% and a viability, T/C [17] of 12.5%. It also gave a viability, T/C [18] of 12.5%, a viability, T/C (second compound 0.316 µM, first compound 3.16 µM) of 13.6% and a viability, T/C (second compound 0.316 µM, first compound 10 µM) of 12.1%. For the same compound, the viability, T/C [19] was 2.45%, the viability, T/C [20] was 1.65% and the viability, T/C [21] was 0.61%. It also gave a viability, T/C [22] of 3.85%, a viability, T/C (second compound 1 µM, first compound 3.16 µM) of 1.22% and a viability, T/C (second compound 1 µM, first compound 10 µM) of 0.69%. It also gave a viability, T/C [23] of 0.85%, a viability, T/C [24] of 1.39% and a viability, T/C [25] of 0.92%. It also gave a viability, T/C [26] of 2.55%, a viability, T/C (second compound 3.16 µM, first compound 3.16 µM) of 2.07% and a viability, T/C (second compound 3.16 µM, first compound 10 µM) of 1.24%. The viability, T/C [27] was 1.95%, the viability, T/C [28] was 3.43% and the viability, T/C [29] was 0.65%. The viability, T/C [30] was 0.96%, the viability, T/C (second compound 10 µM, first compound 3.16 µM) was 1.3% and the viability, T/C (second compound 10 µM, first compound 10 µM) was 0.72%.

`CCN1CCN(Cc2ccc(Nc3ncc(F)c(-c4cc(F)c5nc(C)n(C(C)C)c5c4)n3)nc2)CC1` + CNC(=O)c1ccc(Nc2nc(OC3CCCC3)c3c(-c4ccc5nc(C)oc5c4)c[nH]c3n2)c(OC)c1 showed an IC50 [1] of over 1000 nM, an IC50 [2] of over 1000 nM and an IC50 [3] of over 1000 nM. The IC50 [4] was under 3.16 nM, the IC50 [5] was under 3.16 nM and the IC50 [6] was under 3.16 nM. It also gave a viability, T/C (second compound 0.0316 µM, first compound 0.00316 µM) of 123%, a viability, T/C (second compound 0.0316 µM, first compound 0.01 µM) of 101% and a viability, T/C [7] of 148%. For the same compound, the viability, T/C [8] was 116%, the viability, T/C [9] was 125% and the viability, T/C [10] was 117%. The viability, T/C (second compound 0.1 µM, first compound 0.00316 µM) was 92.7%, the viability, T/C (second compound 0.1 µM, first compound 0.01 µM) was 98.5% and the viability, T/C [11] was 104%. The viability, T/C [12] was 103%, the viability, T/C [13] was 114% and the viability, T/C [14] was 104%. The viability, T/C (second compound 0.316 µM, first compound 0.00316 µM) was 59%, the viability, T/C (second compound 0.316 µM, first compound 0.01 µM) was 64.3% and the viability, T/C [15] was 71.6%. For the same compound, the viability, T/C [16] was 78.8%, the viability, T/C [17] was 76.5% and the viability, T/C [18] was 74.8%. It also gave a viability, T/C (second compound 1 µM, first compound 0.00316 µM) of 41.8%, a viability, T/C (second compound 1 µM, first compound 0.01 µM) of 47.8% and a viability, T/C [19] of 48.3%. For the same compound, the viability, T/C [20] was 60.5%, the viability, T/C [21] was 58.1% and the viability, T/C [22] was 61.5%. It also gave a viability, T/C (second compound 3.16 µM, first compound 0.00316 µM) of 39.1%, a viability, T/C (second compound 3.16 µM, first compound 0.01 µM) of 39.2% and a viability, T/C [23] of 45.2%. For the same compound, the viability, T/C [24] was 47%, the viability, T/C [25] was 51.9% and the viability, T/C [26] was 59.6%. It also gave a viability, T/C (second compound 10 µM, first compound 0.00316 µM) of 41%, a viability, T/C (second compound 10 µM, first compound 0.01 µM) of 39.9% and a viability, T/C [27] of 46.5%. It also gave a viability, T/C [28] of 43.4%, a viability, T/C [29] of 47.8% and a viability, T/C [30] of 46.9%.

For `CC(Nc1ccc2c(c1)OCCn1cc(N3C(=O)OCC3C(F)F)nc1-2)C(N)=O` (stereo unspecified), the viability, T/C (compound 0.0316 µM) was 96.2%, the viability, T/C (compound 0.1 µM) was 103% and 104% and the viability, T/C (compound 0.316 µM) was 80% and 80.6%. The viability, T/C (compound 1 µM) was 65.2% and 58.1%, the viability, T/C (compound 3.16 µM) was 58.7% and 53.7% and the viability, T/C (compound 10 µM) was 49.9% and 37.6%. For the same compound, the IC50 (curve of compound) was > 10000 nM and 2380 nM.
